Assay results published in US6492397B1, “N-arylheteroarylalkyl imidazol-2-one compounds for treatment of arteriosclerosis” (Pharmacia Corporation, priority 1991, dated 2002).
Read-outs that look alike come from different tables or passages of the source.

Tests used:
[1] = biological target: smooth muscle angiotensin II receptor; assay: Assay A: Angiotensin II Binding Activity (125I-angiotensin II displacement, rat uterine membrane preparation); conditions: 50% displacement of specifically bound 125I-AII, rat uterine membranes, 25° C., 60 min
Experimental: Assay A: Angiotensin II Binding Activity
Compounds of the invention were tested for ability to bind to the smooth muscle angiotensin II receptor using a rat uterine membrane preparation. […] Other chemicals were obtained from Sigma Chemical Co. This assay was carried out according to the method of Douglas et al [Endocrinology, 106, 120-124 (1980)]. Rat uterine membranes were prepared from fresh tissue. All procedures were carried out at 4° C. Uteri were stripped of fat and homogenized in phosphate-buffered saline at pH 7.4 containing 5 mM EDTA. The homogenate was centrifuged at 1500×g for 20 min., and the supernatant was recentrifuged at 100,000×g for 60 min. The pellet was resuspended in buffer consisting of 2 mM EDTA and 50 mM Tris-HCl (pH 7.5) to a final protein concentration of 4 mg/ml. Assay tubes were charged with 0.25 ml of a solution containing 5 mM MgCl2, 2 mM EDTA, 0.5% bovine serum albumin, 50 mM Tris-HCl, pH 7.5 and […] (approximately 10^5 cpm) in the absence or in the presence of unlabelled ligand. The reaction was initiated by the addition of membrane protein and the mixture was incubated at 25° C. for 60 min. The incubation was terminated with ice-cold 50 mM Tris-HCl (pH 7.5) and the mixture was filtered to separate membrane-bound labelled peptide from the free ligand. The incubation tube and filter were washed with ice-cold buffer. Filters were assayed for radioactivity in a Micromedic gamma counter. Nonspecific binding was defined as binding in the presence of 10 μM of unlabelled AII. Specific binding was calculated as total binding minus nonspecific binding. […] Binding data were analyzed by a nonlinear least-squares curve fitting program.

pressor response to AII = assay: Assay C: In Vivo Intragastric Pressor Assay Response for AII Antagonists; parameters: species or system rat; conditions: for Assay C Duration: Dose: 3 mg/kg (i.g.), Sprague-Dawley rats, AII challenges up to 180 minutes after gavage; for inhibition in vivo at 3 mg/kg: Rattus norvegicus, po
Experimental: Assay C: In Vivo Intragastric Pressor Assay Response for AII Antagonists
Male Sprague-Dawley rats weighing 225-300 grams were anesthetized with methohexital (30 mg/kg, i.p.) and catheters were implanted into the femoral artery and vein. The catheters were tunneled subcutaneously to exit dorsally, posterior to the head and between the scapulae. The catheters were filled with heparin (1000 units/ml of saline). The rats were returned to their cage and allowed regular rat chow and water ad libitum. After full recovery from surgery (3-4 days), rats were placed in Lucite holders and the arterial line was connected to a pressure transducer. Arterial pressure was recorded on a Gould polygraph (mmHg). Angiotensin II was administered as a 30 ng/kg bolus via the venous catheter delivered in a 50 μl volume with a 0.2 ml saline flush. The pressor response in mm Hg was measured by the difference from pre-injection arterial pressure to the maximum pressure achieved. The AII injection was repeated every 10 minutes until three consecutive injections yielded responses within 4 mmHg of each other. These three responses were then averaged and represented the control response to AII. The test compound was suspended in 0.5% methylcellulose in water and was administered by gavage. The volume administered was 2 ml/kg body weight. The standard dose was 3 mg/kg. Angiotensin II bolus injections were given at 30, 45, 60, 75, 120, 150, and 180 minutes after gavage. The pressor response to AII was measured at each time point. The rats were then returned to their cage for future testing. A minimum of 3 days was allowed between tests. Percent inhibition was calculated for each time point following gavage by the following formula: [(Control Response−Response at time point)/Control Response]×100.

rabbit aortic rings = assay: Assay B: In Vitro Vascular Smooth Muscle Response for AII (antagonist activity in rabbit aortic rings); type: cell-based; conditions: Oryctolagus cuniculus, test antagonist at 10^-5 M, AII contraction, read-out: Assay B pA2 (converted)
Experimental: Assay B: In Vitro Vascular Smooth Muscle-Response for AII
The compounds of the invention were tested for antagonist activity in rabbit aortic rings. Male New Zealand white rabbits (2-2.5 kg) were sacrificed using an overdose of pentobarbital and exsanguinated via the carotid arteries. The thoracic aorta was removed, cleaned of adherent fat and connective tissue and then cut into 3-mm ring segments. The endothelium was removed from the rings by gently sliding a rolled-up piece of filter paper into the vessel lumen. The rings were then mounted in a water-jacketed tissue bath, maintained at 37° C., between moveable and fixed ends of a stainless steel wire with the moveable end attached to an FT03 Grass transducer coupled to a Model 7D Grass Polygraph for recording isometric force responses. The bath was filled with 20 ml of oxygenated (95% oxygen/5% carbon dioxide) Krebs solution of the following composition (mM): 130 NaCl, 15 NaHCO3, […], 1.2 NaH2PO4, 1.2 MgSO4, 2.5 CaCl2, and 11.4 glucose. The preparations were equilibrated for one hour before approximately one gram of passive tension was placed on the rings. Angiotensin II concentration-response curves were then recorded (3×10^−10 to 1×10^−5 M). Each concentration of AII was allowed to elicit its maximal contraction, and then AII was washed out repeatedly for 30 minutes before rechallenging with a higher concentration of AII. Aorta rings were exposed to the test antagonist at 10^−5 M for 5 minutes before challenging with AII. Adjacent segments of the same aorta ring were used for all concentration-response curves in the presence or absence of the test antagonist. The effectiveness of the test compound was expressed in terms of pA2 values and were calculated according to H. O. Schild [Br. J. Pharmacol. Chemother., 2,189-206 (1947)]. The PA2 value is the concentration of the antagonist which increases the EC50 value for AII by a factor of two. Each test antagonist was evaluated in aorta rings from two rabbits.

[2] = first value of the pair (aorta rings from two rabbits)
[3] = second value of the pair (aorta rings from two rabbits)

| SMILES | IC50 [1] [nM] | melting point | Assay C Duration (pressor response to AII) [min] | inhibition in vivo at 3 mg/kg (pressor response to AII) [%] | Kb (rabbit aortic rings; [2]) [nM] | Kb (rabbit aortic rings; [3]) [nM] |
| --- | --- | --- | --- | --- | --- | --- |
| CCCCn1cc(C2CCCC2)n(Cc2ccc(-c3ccccc3-c3nnn[nH]3)nc2)c1=O [Example 8, 1-butyl-4-cyclopentyl-1,3-dihydro-3-[[6-[2-(1H-tetrazol-5-yl)phenyl]-3-pyridinyl]methyl]-2H-imidazol-2-one] | 140 | 195 to 196 °C (dec.) |  |  |  |  |
| CCCCc1cn(C)c(=O)n1Cc1ccc(-c2ccccc2-c2nnn[nH]2)nc1 [Example 10, 1-methyl-4-butyl-1,3-dihydro-3-[[6-[2-(1H-tetrazol-5-yl)phenyl]-3-pyridinyl]methyl]-2H-imidazol-2-one] | 47 | 184 to 185 °C (dec.) |  |  | 22.9 | 44.7 |
| CCCCc1cn(CCCC)c(=O)n1Cc1ccc(-c2ncccc2-c2nnn[nH]2)cc1 [Example 40, 1,4-dibutyl-1,3-dihydro-3-[[4-[3-(1H-tetrazol-5-yl)-2-pyridinyl]phenyl]methyl]-2H-imidazol-2-one] | 91 | 178 to 179.5 °C |  |  |  |  |
| CCCCc1cn(CCCC)c(=O)n1Cc1ccc(-c2cnccc2-c2nnn[nH]2)cc1 [Example 41, 1,4-dibutyl-1,3-dihydro-3-[[4-[4-(1H-tetrazol-5-yl)-3-pyridinyl]phenyl]methyl]-2H-imidazol-2-one] | 160 | 128 to 130 °C |  |  |  |  |
| CCCCc1cn(CCCC)c(=O)n1Cc1ccc(-c2ccncc2-c2nnn[nH]2)cc1 [Example 42, 1,4-dibutyl-1,3-dihydro-3-[[4-[3-(1H-tetrazol-5-yl)-4-pyridinyl]phenyl]methyl]-2H-imidazol-2-one] | 93 | 176 to 178 °C (dec.) |  |  |  |  |
| CCCCc1cn(CCCC)c(=O)n1Cc1ccc(-c2cccnc2-c2nnn[nH]2)cc1 [Example 43, 1,4-dibutyl-1,3-dihydro-3-[[4-[2-(1H-tetrazol-5-yl)-3-pyridinyl]phenyl]methyl]-2H-imidazol-2-one] | 89 | 178 to 179.5 °C |  |  | 28.2 | 21.4 |

These reach a lower IC50 [1]. Values come first.

| IC50 [1] [nM] | melting point | SMILES | Assay C Duration (pressor response to AII) [min] | inhibition in vivo at 3 mg/kg (pressor response to AII) [%] | Kb (rabbit aortic rings; [2]) [nM] | Kb (rabbit aortic rings; [3]) [nM] |
| --- | --- | --- | --- | --- | --- | --- |
| 6.5 | 170 to 171 °C | CCCCc1cn(CCCC)c(=O)n1Cc1ccc(-c2ccccc2-c2nnn[nH]2)nc1 [Example 1, 1,4-dibutyl-1,3-dihydro-3-[[6-[2-(1H-tetrazol-5-yl)phenyl]-3-pyridinyl]methyl]-2H-imidazol-2-one] | >180 | 50 | 1.51 | 2.95 |
| 10 | 176 to 177 °C | CCCCCc1cn(CCCC)c(=O)n1Cc1ccc(-c2ccccc2-c2nnn[nH]2)nc1 [Example 6, 1-butyl-4-yl-1,3-dihydro-3-[[6-[2-(1H-tetrazol-5-yl)phenyl]-3-pyridinyl]methyl]-2H-imidazol-2-one] | 180 | 10 | 13.5 | 12.9 |
| 34 | 205 °C (dec.) | CCCCc1cn(CC)c(=O)n1Cc1ccc(-c2ccccc2-c2nnn[nH]2)nc1 [Example 11, 1-ethyl-4-butyl-1,3-dihydro-3-[[6-[2-(1H-tetrazol-5-yl)phenyl]-3-pyridinyl]methyl]-2H-imidazol-2-one] |  |  | 3.63 | 9.33 |
| 31 | 164 to 165 °C | CCCCc1cn(CCC)c(=O)n1Cc1ccc(-c2ccccc2-c2nnn[nH]2)nc1 [Example 12, 1-propyl-4-butyl-1,3-dihydro-3-[[6-[2-(1H-tetrazol-5-yl)phenyl]-3-pyridinyl]methyl]-2H-imidazol-2-one] |  |  | 20.9 | 5.5 |
| 14 | 160 to 161.5 °C | CCCCc1cn(CC(C)C)c(=O)n1Cc1ccc(-c2ccccc2-c2nnn[nH]2)nc1 [Example 13, 1-isobutyl-4-butyl-1,3-dihydro-3-[[6-[2-(1H-tetrazol-5-yl)phenyl]-3-pyridinyl]methyl]-2H-imidazol-2-one] |  |  | 9.33 | 2.51 |
| 7.6 | 168.5 to 170 °C | CCCCc1cn(CCC(C)C)c(=O)n1Cc1ccc(-c2ccccc2-c2nnn[nH]2)nc1 [Example 14, 1-isopentyl-4-butyl-1,3-dihydro-3-[[6-[2-(1H-tetrazol-5-yl)phenyl]-3-pyridinyl]methyl]-2H-imidazol-2-one] | >180 | 35 | 1.74 | 2.29 |
| 18 |  | CCCCc1cn(CCC2CCCC2)c(=O)n1Cc1ccc(-c2ccccc2-c2nnn[nH]2)nc1 [Example 27, 1-(2-cyclopentylethyl)-4-butyl-1,3-dihydro-3-[[6-[2-(1H-tetrazol-5-yl)phenyl]-3-pyridinyl]methyl]-2H-imidazol-2-one] | >180 | 35 | 1.82 | 2.14 |
| 23 |  | CCCCc1cn(CCC2=CCCC2)c(=O)n1Cc1ccc(-c2ccccc2-c2nnn[nH]2)nc1 [Example 28, 1-[2-(cyclopenten-1-yl)ethyl]-4-butyl-1,3-dihydro-3-[[6-[2-(1H-tetrazol-5-yl)phenyl]-3-pyridinyl]methyl]-2H-imidazol-2-one] | 180 | 15 | 1.41 | 5.62 |
| 7 | 164.5 to 165.5 °C (dec.) | CCCCc1cn(-c2c(F)cccc2F)c(=O)n1Cc1ccc(-c2ccccc2-c2nnn[nH]2)nc1 [Example 36, 1-(2,6-difluorophenyl)-4-butyl-1,3-dihydro-3-[[6-[2-(1H-tetrazol-5-yl)phenyl]-3-pyridinyl]methyl]-2H-imidazol-2-one] | 120 | 75 |  |  |
| 4.8 | 212 to 212.5 °C | CCCCc1cn(-c2c(Cl)cccc2Cl)c(=O)n1Cc1ccc(-c2ccccc2-c2nnn[nH]2)nc1 [Example 37, 1-(2,6-dichlorophenyl)-4-butyl-1,3-dihydro-3-[[6-[2-(1H-tetrazol-5-yl)phenyl]-3-pyridinyl]methyl]-2H-imidazol-2-one] | >180 | 25 |  |  |
